The test addresses T1, progesterone receptor (Homo sapiens, UniProt P06401).
T1 sequence (P06401 1-933): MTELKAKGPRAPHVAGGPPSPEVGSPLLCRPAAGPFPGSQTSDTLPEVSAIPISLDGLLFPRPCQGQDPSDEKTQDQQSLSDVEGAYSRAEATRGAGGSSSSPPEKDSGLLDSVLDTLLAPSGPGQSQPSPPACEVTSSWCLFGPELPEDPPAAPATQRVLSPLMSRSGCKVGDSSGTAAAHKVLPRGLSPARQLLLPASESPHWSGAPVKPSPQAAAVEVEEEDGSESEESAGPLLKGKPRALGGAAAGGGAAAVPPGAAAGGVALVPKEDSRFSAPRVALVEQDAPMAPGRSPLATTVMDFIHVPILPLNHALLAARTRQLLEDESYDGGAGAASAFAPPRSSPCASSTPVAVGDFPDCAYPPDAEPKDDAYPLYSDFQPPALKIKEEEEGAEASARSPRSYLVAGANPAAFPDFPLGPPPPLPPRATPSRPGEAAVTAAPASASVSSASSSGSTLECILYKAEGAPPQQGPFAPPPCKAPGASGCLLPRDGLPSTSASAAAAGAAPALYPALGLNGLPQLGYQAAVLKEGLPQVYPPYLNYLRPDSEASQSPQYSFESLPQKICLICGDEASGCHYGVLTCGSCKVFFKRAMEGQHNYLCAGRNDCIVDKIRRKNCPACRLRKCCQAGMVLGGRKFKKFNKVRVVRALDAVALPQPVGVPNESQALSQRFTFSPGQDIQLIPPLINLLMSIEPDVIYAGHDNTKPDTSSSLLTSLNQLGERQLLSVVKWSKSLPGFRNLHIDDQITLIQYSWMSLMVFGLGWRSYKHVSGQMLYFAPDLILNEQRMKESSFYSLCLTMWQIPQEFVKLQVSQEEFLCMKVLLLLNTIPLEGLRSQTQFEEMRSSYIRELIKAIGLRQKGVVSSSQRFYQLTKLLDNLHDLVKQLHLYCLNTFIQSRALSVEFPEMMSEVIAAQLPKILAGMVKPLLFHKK
The experiment in a line: T47D alkaline phosphatase assay for progesterone receptor modulator (antagonist) activity. The format is cell-based. Further details: endogenous in cells; host or cells: T47D cells. The note with it: T47D cells; for pIC50: antagonist mode in the presence of 1 nM progesterone, 24 hours. As for the experimental part: An assay was performed to identify compounds having progesterone receptor modulator activity. This assay identifies progestins or antiprogestins by determining a compound's effect on alkaline phosphatase activity in T47D cells.
Culture medium: DMEM:F12 (1:1) (GIBCO, BRL) supplemented with 5% (v/v) charcoal stripped fetal bovine serum (not heat-inactivated), 100 U/mL penicillin, 100 μg/mL streptomycin, and 2 mM the GlutaMax® reagent (GIBCO, BRL).
Alkaline phosphatase assay buffer: • I. 0.1M Tris-HCl, pH 9.8, containing 0.2% the Triton™ X-100 reagent • II. 0.1M Tris-HCl, pH 9.8, containing 4 mM p-nitrophenyl phosphate (Sigma).
Frozen T47D cells are thawed in a 37° C. water bath and diluted to 280,000 cells/mL in culture medium. To each well in a 96-well plate (Falcon, Becton Dickinson Labware), 180 μL of diluted cell suspension is added.
Twenty μL of reference or test compounds diluted in the culture medium is then added to each well. When testing for progestin antagonist activity, reference antiprogestins or test compounds are added in the presence of 1 nM progesterone. The cells are incubated at 37° C. in a 5% CO2/humidified atmosphere for 24 hours.
For high throughput screening, one concentration of each compound will be tested at 0.3 μg/mL. Based on an average molecular weight of 300 g/mol for the compounds in the library, the concentration is approximately 1 μM. Subsequently, active compounds will be tested in dose response assays to determine EC50 and IC50.
At the end of treatment, the medium is removed from the plate. Fifty μL of assay buffer I is added to each well. The plates are shaken in a titer plate shaker for 15 minutes. Then 150 μL of assay buffer II is added to each well. Optical density measurements are taken at 5 minute intervals for 30 minutes at a test wavelength of 405 nm.
Analysis of dose-response data. For reference and test compounds, a dose response curve is generated for dose (x-axis) vs. the rate of enzyme reaction (slope) (y-axis). Square root-transformed data are used for analysis of variance and nonlinear dose response curve fitting for both agonist and antagonist modes. Huber weighting is used to down-weight the effects of outliers. EC50 or IC50 values are calculated from the retransformed values. The JMP® software (SAS Institute, Inc.) is used for both one-way analysis of variance and non-linear dose response analysis in both single dose and dose response studies.
Progesterone and trimegestone are reference progestins and RU486 is the reference antiprogestin. All reference compounds are run in full dose response curves and the EC50 and IC50 values are calculated.
In the table provided above, the IC50 values show the relative progesterone receptor antagonist activity in this assay. Lower numbers are indicative of higher potency, i.e., greater PR antagonist activity. Further, the assay has a standard deviation of about ±6.

pIC50: −log10 of the molar value. Some results are limits rather than exact numbers.

By pIC50 is commonly meant the negative decadic logarithm of the IC50, by convention in mol/L. Regarding `CCCCS(=O)(=O)Nc1ccc(-c2ccc(C#N)n2C)c(C(F)(F)F)c1` [Example 55, N-[4-(5-cyano-1-methyl-1H-pyrrol-2-yl)-3-(trifluoromethyl)phenyl]butane-1-sulfonamide], the pIC50 was 7.27. As to `Cn1c(C#N)ccc1-c1ccc(NC#N)c(F)c1` [Example 34, [4-(5-cyano-1-methyl-1H-pyrrol-2-yl)-2-fluorophenyl]cyanamide], the pIC50 is 6.17. For the compound `Cn1c(C#N)ccc1-c1ccc(N)cc1` [Example 1, 5-(4-aminophenyl)-1-methyl-1H-pyrrole-2-carbonitrile], the pIC50 is 6.96. On to `CCS(=O)(=O)Nc1ccc(-c2ccc(C#N)n2C)cc1` [Example 24, N-[4-(5-cyano-1-methyl-1H-pyrrol-2-yl)phenyl]ethanesulfonamide], for which the pIC50 is 8.00. Still for that read-out and setting: to `CC(C)S(=O)(=O)Nc1ccc(-c2ccc(C#N)n2C)c(C(F)(F)F)c1` [Example 56, N-[4-(5-cyano-1-methyl-1H-pyrrol-2-yl)-3-(trifluoromethyl)phenyl]propane-2-sulfonamide] belongs 7.60; to `Cn1c(C#N)ccc1-c1ccc(NC(=O)Nc2ccc(-c3ccc(C#N)n3C)cc2)cc1` [Example 15, N,N′-bis[4-(5-cyano-1-methyl-1H-pyrrol-2-yl)phenyl]urea], 6.19. As to `Cn1c(C#N)ccc1-c1cc(F)c(NS(C)(=O)=O)cc1F` [Example 46, N-[4-(5-cyano-1-methyl-1H-pyrrol-2-yl)-2,5-difluorophenyl]-methane-sulfonamide], the “Active Dose” value was found to be 10 µM and the pIC50 is 7.40. Take `CCCS(=O)(=O)Nc1cc(F)c(-c2ccc(C#N)n2C)c(F)c1` [Example 81, N-[4-(5-cyano-1-methyl-1H-pyrrol-2-yl)-3,5-difluorophenyl]propane-1-sulfonamide]: the pIC50 was 8.21. Same read-out and setting: the value for `COc1cc(NC#N)ccc1-c1ccc(C#N)n1C` [Example 36, [4-(5-cyano-1-methyl-1H-pyrrol-2-yl)-3-methoxyphenyl]cyanamide] was 7.08; that for `CCCc1cc(-c2ccc(C#N)n2C)ccc1NC#N` [Example 31, [4-(5-cyano-1-methyl-1H-pyrrol-2-yl)-2-propylphenyl] cyanamide] was greater than 6.52. By inhibition is commonly meant the percentage by which the read-out fell short of the control. Read a high inhibition as a response far below the control. Consider `Cn1c(C#N)ccc1-c1ccc(NS(C)(=O)=O)c(C#N)c1` [Example 77, N-[2-cyano-4-(5-cyano-1-methyl-1H-pyrrol-2-yl)phenyl]methanesulfonamide], for which the “Active Dose” value was 3 µM. This compound also displayed an inhibition at 3 µM (at Active Dose 3000 nM) of 50%. For `CCS(=O)(=O)Nc1ccc(-c2ccc(C#N)n2C)cc1OC(F)(F)F` [Example 60, N-[4-(5-cyano-1-methyl-1H-pyrrol-2-yl)-2-(trifluoromethoxy)phenyl]ethane-sulfonamide], the pIC50 is 7.45.

Turning to `CCCCS(=O)(=O)Nc1ccc(-c2ccc(C#N)n2C)cc1` [Example 18, N-[4-(5-cyano-1-methyl-1H-pyrrol-2-yl)phenyl]butane-1-sulfonamide], the pIC50 was roughly 6.52.

With `CCS(=O)(=O)Nc1ccc(-c2ccc(C#N)n2C)cc1F` [Example 27, N-[4-(5-cyano-1-methyl-1H-pyrrol-2-yl)-2-fluorophenyl]ethane-sulfonamide], the pIC50 was 7.52. Turning to `CCS(=O)(=O)Nc1ccc(-c2ccc(C#N)n2C)c(C#N)c1` [Example 75, N-[3-cyano-4-(5-cyano-1-methyl-1H-pyrrol-2-yl)phenyl]ethanesulfonamide], the pIC50 was 6.91. The same measure, in the same setting: to `CCCS(=O)(=O)Nc1ccc(-c2ccc(C#N)n2C)c(F)c1` [Example 42, N-[4-(5-cyano-1-methyl-1H-pyrrol-2-yl)-3-fluorophenyl]propane-1-sulfonamide] belongs 8.46; to `CCCCS(=O)(=O)Nc1cc(F)c(-c2ccc(C#N)n2C)c(F)c1` [Example 82, N-[4-(5-cyano-1-methyl-1H-pyrrol-2-yl)-3,5-difluorophenyl]butane-1-sulfonamide], 8.07; to `CCCCS(=O)(=O)Nc1cc(F)c(-c2ccc(C#N)n2C)cc1F` [Example 49, N-[4-(5-cyano-1-methyl-1H-pyrrol-2-yl)-2,5-difluorophenyl]butane-1-sulfonamide], 6.57. For the compound `Cn1c(C#N)ccc1-c1ccc(NC(=O)c2ccccc2)cc1` [Example 9, N-[4-(5-cyano-1-methyl-1H-pyrrol-2-yl)phenyl]benzamide], the pIC50 is 7.04. Same read-out and setting: to `CCS(=O)(=O)Nc1ccc(-c2ccc(C#N)n2C)c(C(F)(F)F)c1` [Example 53, N-[4-(5-cyano-1-methyl-1H-pyrrol-2-yl)-3-(trifluoromethyl)phenyl]ethane-sulfonamide] belongs 7.99; to `CCCS(=O)(=O)Nc1ccc(-c2ccc(C#N)n2C)c(C#N)c1` [Example 76, N-[3-cyano-4-(5-cyano-1-methyl-1H-pyrrol-2-yl)phenyl]propane-1-sulfonamide], 7.06; to `Cc1ccc(S(=O)(=O)Nc2ccc(-c3ccc(C#N)n3C)cc2)cc1` [Example 22, N-[4-(5-cyano-1-methyl-1H-pyrrol-2-yl)phenyl]-4-methylbenzenesulfonamide], roughly 5.52. In the case of `Cn1c(C#N)ccc1-c1ccc(N(S(C)(=O)=O)S(C)(=O)=O)cc1` [Example 17, N-[4-(5-cyano-1-methyl-1H-pyrrol-2-yl)phenyl]-N-(methylsulfonyl)methane sulfonamide], the pIC50 is roughly 6.52. For the compound `Cn1c(C#N)ccc1-c1ccc(NC(=O)C2CCCCC2)cc1` [Example 11, N-[4-(5-cyano-1-methyl-1H-pyrrol-2-yl)phenyl]cyclohexane-carboxamide], the pIC50 is 6.49. Consider `Cn1c(C#N)ccc1-c1ccc(NS(C)(=O)=O)cc1` [Example 25, N-[4-(5-cyano-1-methyl-1H-pyrrol-2-yl)phenyl]methanesulfonamide], for which the pIC50 was 8.09.

Turning to `CCn1c(C#N)ccc1-c1ccc(NS(=O)(=O)CC)cc1` [Example 66, N-[4-(5-cyano-1-ethyl-1H-pyrrol-2-yl)phenyl]ethanesulfonamide], the pIC50 is 7.08. For the same compound, the “Antagonist Efficacy” value (in the presence of 1 nM progesterone) is recorded as 80%.

Consider `CC(C)S(=O)(=O)Nc1ccc(-c2ccc(C#N)n2C)c(F)c1` [Example 44, N-[4-(5-cyano-1-methyl-1H-pyrrol-2-yl)-3-fluorophenyl]propane-2-sulfonamide], for which the “Active Dose” value worked out at 10 µM and the pIC50 was 8.03. As for `Cn1c(C#N)ccc1-c1ccc(NS(C)(=O)=O)c(F)c1` [Example 26, N-[4-(5-cyano-1-methyl-1H-pyrrol-2-yl)-2-fluorophenyl]methane-sulfonamide], the pIC50 was 7.54. As for `Cn1c(C#N)ccc1-c1ccc(NC#N)cc1` [Example 28, [4-(5-cyano-1-methyl-1H-pyrrol-2-yl)-phenyl]cyanamide], the pIC50 is 7.27.

Values taken from patent publication US20070027201A1 (Wyeth, priority 2005, published 2007).
